This assay has as its target T1, KRAS G12C (Homo sapiens, UniProt P01116, G12C).
T1 construct: aa 2-169, expressed in E. coli; His-tag (TEV cleavable) (N); purchased Reaction Biology Corporation (RBC); host or cells: E. coli
The assay is described as follows: KRAS G12C/SOS1 Nucleotide Exchange Assay (SOS1-mediated Bodipy-GDP to GTP exchange). Type of assay: biochemical. Conditions: for pIC50: substrate Bodipy-GDP/Kras G12C, 30 min pre-incubation at RT. The method, then: Reaction Buffer: 40 mM HEPES 7.4, 10 mM MgCl2, 1 mM DTT 0.002% Triton X100, 0.1% DMSO (final).
In addition, the final assay volume was 15 μL.
Reaction Procedure: • 1. Deliver 10 uL of 1.5× KRAS solution in freshly prepared reaction buffer to reaction wells. • 2. Deliver compounds in 100% DMSO into buffer using acoustic technology (Echo550; nanoliter range). • 3. Incubate compounds with Kras for 30 minutes at room temperature. • 4. Prepare 3× (SOS1+GTP) solution in reaction buffer. • 5. Deliver 5 μL of SOS1+GTP solution into reactions wells (deliver GTP only to column 1 for no SOS1 control). • 6.
Data Analysis: The fluorescence data was normalized using the equation below and fitted to “one phase exponential decay” equation using GraphPad prism software. The plateau was fixed to zero (use for non-covalent inhibitors) and rate ×1000 was used to calculate the IC50 values. Alternatively, the plateau was unconstrained (for covalent inhibitors) and the span value was used to calculate the IC50 values.
where Yraw is defined as fluorescence at time t, Ao is the average initial fluorescence with no SOS1, and M is the minimum fluorescence at the end of the reaction at the maximum SOS1.
The background subtracted signals (no SOS1 protein wells were used as background) were converted to % activity relative to DMSO controls. Data was analyzed using GraphPad Prism 4 with “sigmoidal dose-response (variable slope)”; 4 parameters with Hill Slope. The constraints were bottom (constant equal to 0) and top (must be less than 1).

[1] abbreviates: plateau fixed to zero, rate x1000 used, read-out: IC50, Analysis Method: Rate Constant, KRAS G12C.

Molecules are shown by their SMILES. pIC50: −log10 of the molar value. Counter-ions that a name gives are not always drawn. Like-named read-outs stand apart in the source and are kept apart here.

T1 sequence (P01116 2-169 G12C): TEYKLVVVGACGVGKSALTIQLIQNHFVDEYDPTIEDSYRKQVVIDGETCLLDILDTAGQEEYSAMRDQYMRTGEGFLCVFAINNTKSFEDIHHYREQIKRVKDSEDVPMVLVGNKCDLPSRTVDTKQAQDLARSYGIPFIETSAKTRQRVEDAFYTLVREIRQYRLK

Consider `C=CC(=O)N1CCN(c2nc(OC[C@@H]3CCCN3C)nc3nc(-c4cccc5cccc(Cl)c45)ccc23)C[C@@H]1CC#N` [Example 2, 2-((S)-1-Acryloyl-4-(7-(8-chloronaphthalen-1-yl)-2-(((S)-1-methylpyrrolidin-2-yl)methoxy)pyrido[2,3-d]pyrimidin-4-yl)piperazin-2-yl)acetonitrile trifluoroacetate (1:1)], for which the pIC50 (usually the negative decadic logarithm of the IC50, by convention in mol/L) runs as follows: under setting [1], 8.10; (plateau unconstrained, span value used (for covalent inhibitors), read-out: IC50, Analysis Method: Span, KRAS G12C) 7.60.

As to `C=CC(=O)N1CCN(c2nc(OCC3CCCN3C)nc3nc(-c4cccc5cccc(Cl)c45)ccc23)C[C@H]1C` (stereo partly drawn) [Example 1, 1-[(2R)-4-[7-(8-Chloronaphthalen-1-yl)-2-[(1-methylpyrrolidin-2-yl)methoxy]pyrido[2,3-d]pyrimidin-4-yl]-2-methylpiperazin-1-yl]prop-2-en-1-one], for the setting “span analysis, no curve fit, highest concentration tested 10 μM, read-out: inhibition, printed in place of an IC50, Analysis Method: Span, KRAS G12C”, the inhibition (usually the relative decrease from the control value, in per cent) at 10 µM is under 65%. Also, under setting [1], the pIC50 is 7.24.
